In patent US11033535B2, “Oxadiazoles and thiadiazoles as TGF-β inhibitors” (Southern Research Institute, priority 2017, dated 2021):

Target: (Homo sapiens, UniProt P07996)
Test: Secondary Assay, inhibitory activity of thiadiazole and oxadiazole analogs as TGF-beta inhibitors
Format: biochemical
Details: Table I
Experimental: A summary of the inhibitory activity of representative thiadiazole analogs (Tables i and ii) and oxadiazole analogs (Table ii) is shown below.
For initial screening, an ELISA-based screening assay was used in which purified human platelet TSP-1 was incubated with compounds and then incubated with recombinant latent TGF-β1 (purchased from R&D Systems). Activity is measured in a commercially available ELISA which detects only active TGF-β (R &D Systems). Activity in the presence of compounds is compared to activity in TSP-1+latent TGF-β samples without inhibitory compounds (Lu et al. (2016) Am J Pathol 186:678-690).
To specifically assess activity of compounds in liver cell specific assays, two different assays were used. In the first, human hepatic stellate cells were incubated overnight in low serum media to condition the media with secreted latent TGF-β. Purified TSP1 either pre-incubated with compounds or not will be added to cultures and then conditioned media harvested to assess TGF-β biological activity using the R&D Systems ELISA as above. Hepatic stellate cells will be purchased from commercial sources. Although hepatic stellate cells are the primary drivers of liver fibrosis, conditions which drive liver fibrosis can induce hepatocyte TSP-1 expression which can then have paracrine effects on controlling TGF-β activation in hepatic stellate cells. Furthermore, TGF-β can negatively impact hepatocyte regeneration following injury. Therefore, the ability of compounds to block TSP-1 activation of latent TGF-β will also be assessed in cultured primary human hepatocytes following the protocol described for the hepatic stellate cells. Similar approaches have successfully been used to screen compounds which inhibit human myeloma cell derived latent TGF-β activation by TSP-1 (Lu et al. (2016) Am J Pathol 186:678-690).

Sequence of (Homo sapiens, UniProt P07996) (P07996 whole entry): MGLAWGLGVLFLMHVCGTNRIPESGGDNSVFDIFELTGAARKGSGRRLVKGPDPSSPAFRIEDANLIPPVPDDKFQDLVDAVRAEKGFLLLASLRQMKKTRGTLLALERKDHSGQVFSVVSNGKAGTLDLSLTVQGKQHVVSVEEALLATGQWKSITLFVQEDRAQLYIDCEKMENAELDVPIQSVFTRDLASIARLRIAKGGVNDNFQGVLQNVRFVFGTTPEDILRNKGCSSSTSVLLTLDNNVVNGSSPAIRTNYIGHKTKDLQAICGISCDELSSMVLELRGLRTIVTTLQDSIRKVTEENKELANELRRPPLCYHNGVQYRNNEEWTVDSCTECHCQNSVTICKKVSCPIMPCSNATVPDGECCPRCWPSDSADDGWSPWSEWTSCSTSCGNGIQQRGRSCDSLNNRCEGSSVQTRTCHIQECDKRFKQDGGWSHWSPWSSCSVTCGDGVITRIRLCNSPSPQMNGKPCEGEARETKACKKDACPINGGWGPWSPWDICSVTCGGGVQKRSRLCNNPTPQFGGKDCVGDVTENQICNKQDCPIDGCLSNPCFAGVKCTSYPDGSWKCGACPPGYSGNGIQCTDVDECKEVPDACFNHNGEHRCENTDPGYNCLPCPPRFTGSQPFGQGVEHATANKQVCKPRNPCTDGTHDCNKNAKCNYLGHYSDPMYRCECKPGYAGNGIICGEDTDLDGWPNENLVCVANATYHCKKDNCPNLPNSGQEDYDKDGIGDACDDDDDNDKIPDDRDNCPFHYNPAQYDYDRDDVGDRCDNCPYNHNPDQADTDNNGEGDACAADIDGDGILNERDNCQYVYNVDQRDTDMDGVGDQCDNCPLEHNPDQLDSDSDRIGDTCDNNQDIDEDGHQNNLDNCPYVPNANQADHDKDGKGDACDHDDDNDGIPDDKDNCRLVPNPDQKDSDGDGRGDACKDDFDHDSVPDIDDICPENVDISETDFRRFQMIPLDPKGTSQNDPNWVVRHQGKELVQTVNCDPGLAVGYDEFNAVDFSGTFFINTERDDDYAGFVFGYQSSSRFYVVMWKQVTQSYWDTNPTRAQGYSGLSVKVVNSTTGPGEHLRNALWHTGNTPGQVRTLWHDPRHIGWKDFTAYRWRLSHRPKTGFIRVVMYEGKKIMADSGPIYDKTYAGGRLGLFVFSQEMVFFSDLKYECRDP

An IC50 of 0.051 µM was found for CNCc1ccc(C[C@H](NC(C)=O)c2nnc(-c3cccc(OC(F)(F)F)c3)s2)cc1 [Compound 42140, N-(2-(4-((methylamino)methyl)phenyl)-1-(5-(3-(trifluoromethoxy)phenyl)-1,3,4-thiadiazol-2-yl)ethyl)acetamide] in this work.
An IC50 of 0.002 µM was found for CC(=O)N[C@@H](Cc1ccc(CN(C)C)cc1)c1nnc(-c2cccc(OC(F)(F)F)c2)s1 [Compound 42320, N-(2-(4-((dimethylamino)methyl)phenyl)-1-(5-(3-(trifluoromethoxy)phenyl)-1,3,4-thiadiazol-2-yl)ethyl)acetamide] in this work.
